# Assay results reported in article PMC10388305, “Synthesis and Evaluation of a Monomethyl Auristatin E—Integrin αvβ6 Binding Peptide–Drug Conjugate for Tumor Targeted Drug Delivery” (Journal of Medicinal Chemistry, 2023).
# “Also recorded” adds a separate entry of the source.
# Assays:
# DX3puro (−) cells [1] = assay: WST-1 cell viability assay, DX3puro; format: cell-based; conditions: up to 5 nM
# Method: (§1) Peptides NH2-2 and [^natCu]2 were not toxic to any cells (Figure 3, gray and black, respectively).
# (§2) Cell viability was measured after treatment with either NH2-2, [^natCu]2, MMAE (free, non-targeted drug), NH2-PDC-1, or [^natCu]PDC-1 in DX3puroβ6 (+) and DX3puro (−) cells at variable concentrations up to 5 nM, and in BxPC-3 (+) and MIA PaCa-2 (−) cells at variable concentrations up to 250 nM, or with MMAE at concentrations up to 10 nM. Cells were seeded in a 96 well plate at a density of 6000 cells/well for DX3puroβ6 and DX3puro, and at a density of 10,000 cells/well for BxPC-3 and MIA PaCa-2. DMEM media was used for all cells except for BxPC-3 (RPMI 1640 media). Cells (n = 6–8 wells/cell type/compound) were treated with different concentrations of NH2-2, [^natCu]2, MMAE, NH2-PDC-1, or [^natCu]PDC-1 dissolved in the respective media, as well as their respective media (no treatment) for 48 h (37 °C, 5% CO2), after which the media was removed; cells were washed twice with media (200 μL) and re-incubated in media (37 °C, 5% CO2) for 24 h. The media was then removed and the WST-1 reagent was added to each well, and the cells were incubated for 2 h at 37 °C. The 96 well plates were read at 450 nm by a Multiscan Ascent microplate reader. The percent cell viability was normalized to untreated cells (set as 100% viability) for each cell line.
# BxPC-3 (+) cells [2] = assay: Caspase-3/7 activity assay (ApoTox-Glo), BxPC-3; format: cell-based; conditions: for Caspase-3/7 activity, fold increase: 250 nM, 48 h, untreated = 1, n = 4; for Caspase-3/7 activity (in words): 250 nM (MMAE 10 nM, staurosporine 100 nM), 24, 48, 72 h
# Method: (§3) Caspase-3/7 activity was analyzed using an ApoTox-Glo Triplex Assay kit. Cells were seeded in a 96 well plate at the same density and using the same respective media as described for the WST-1 assay and incubated overnight (37 °C, 5% CO2). DX3puroβ6 and DX3puro cells were treated with 1 nM of MMAE (free, non-targeted drug) or 0.625 nM of the other compounds: NH2-2, [^natCu]2, NH2-PDC-1, or [^natCu]PDC-1. BxPC-3 and MIA PaCa-2 cells were treated with 10 nM of MMAE or 250 nM of the other compounds: NH2-2, [^natCu]2, NH2-PDC-1, or [^natCu]PDC-1. All cells were treated with 100 nM of staurosporine as a positive control.[24] Untreated cells (media) were used as a measure of endogenous caspase-3/7 activity (normalized to 1). Cells were treated (n = 4/cell line/compound/time) for 24, 48, or 72 h (37 °C, 5% CO2) prior to washing. After treatment, the media was removed, cells were washed, and Caspase-Glo 3/7 reagent was added, and incubated for 1 h at room temperature. Caspase-3/7 activity was analyzed by measuring luminescence with a Fluoroskan FL microplate reader according to the manufacturer’s protocol.
# MIA PaCa-2 (−) cells [3] = assay: WST-1 cell viability assay, MIA PaCa-2; format: cell-based
# Method: as §1, §2
# MIA PaCa-2 (−) cells [4] = assay: Caspase-3/7 activity assay (ApoTox-Glo), MIA PaCa-2; format: cell-based; conditions: 250 nM (MMAE 10 nM, staurosporine 100 nM), 24, 48, 72 h
# Method: as §3
# DX3puroβ6 (+) cells [5] = assay: WST-1 cell viability assay, DX3puroβ6; format: cell-based; conditions: for Fold more cytotoxic toward DX3puroβ6 (+) than DX3puro (−) cells: WST-1 EC50 ratio
# Method: as §1, §2
# BxPC-3 (+) cells [6] = assay: WST-1 cell viability assay, BxPC-3; format: cell-based
# Method: as §1, §2
# DX3puro (−) cells [7] = assay: Caspase-3/7 activity assay (ApoTox-Glo), DX3puro; format: cell-based; conditions: 0.625 nM (MMAE 1 nM, staurosporine 100 nM), 24, 48, 72 h
# Method: as §3
# DX3puroβ6 (+) cells [8] = assay: Caspase-3/7 activity assay (ApoTox-Glo), DX3puroβ6; format: cell-based; conditions: for Caspase-3/7 activity, times higher: DX3puroβ6, 0.625 nM, 24 h, untreated = 1, n = 4; for Caspase-3/7 activity (in words): DX3puroβ6 (+), 0.625 nM (MMAE 1 nM, staurosporine 100 nM), 24, 48, 72 h
# Method: as §3
# DX3puro (−) tumors = assay: Therapy study, DX3puro (−) tumor-bearing mice; format: in vivo
# Source text: (§4) Mice treated with [^natCu]PDC-1 had slower tumor growth compared to the groups receiving saline, non-drug bearing peptide [^natCu]2, or free, non-targeted MMAE (Figure 7). […] All mice in the groups treated with saline, non-drug bearing peptide [^natCu]2, or free, non-targeted MMAE had met an end point criterion (≥2 cm in any direction and/or tumor ulceration) by 56 days, 70 days, and 64 days from start of treatment, respectively, with all these groups having the same median survival of 37 days (Figure 7B).
# Tumor xenografts were established by subcutaneous injection of either DX3puroβ6 or DX3puro cells (3 × 10^6 cells in 100 μL serum-free DMEM/animal) into the flank. The tumors were allowed to grow for 19 days before the start of treatment (day 0). […] Tumor volumes and body weights (to assess possible systemic toxicity) were measured starting on day 0, and once a week thereafter until the end of the study. Tumor volume (V) was determined according to the equation V = (π/6) × L × W × H, where L is the longest axis, W is the axis perpendicular to L, and H is perpendicular to the plane of L and W. End point determination criteria were: any axis >2 cm, active ulceration, or compromised health of the mouse (>20% loss of body weight from the start of the study). […] Survival curves were determined by Kaplan–Meier method.
# DX3puroβ6 (+) tumors = assay: Therapy study, DX3puroβ6 (+) tumor-bearing mice; format: in vivo
# Source text: as §4
# Tumor xenografts were established by subcutaneous injection of either DX3puroβ6 or DX3puro cells (3 × 10^6 cells in 100 μL serum-free DMEM/animal) into the flank. The tumors were allowed to grow for 19 days before the start of treatment (day 0). Mice were treated with either (1) saline, (2) peptide ([^natCu]2), 6 mg/kg, 1.12 μmol/kg), (3) non-targeted drug (MMAE, 0.3 mg/kg, 0.42 μmol/kg), or (4) PDC ([^natCu]PDC-1, 6 mg/kg, 0.88 μmol/kg). Dosing of MMAE was 0.3 mg/kg as per maximum dose with no physiological response.[25] The [^natCu]PDC-1 treatment groups consisted of n = 10/tumor model, while all other groups (saline, [^natCu]2, and MMAE) consisted of n = 4/tumor model. All groups received four doses (on days 0, 3, 6, and 9) via i.v. tail vein injection of the above dose dissolved in saline (100 μL). The mean weights and standard deviation of each group was 25.9 ± 1.2 g (saline), 25.6 ± 1.5 g ([^natCu]2), 25.8 ± 2.5 g (MMAE), 24.9 ± 1.9 g ([^natCu]PDC-1, DX3puroβ6 tumors), and 25.7 ± 2.0 g ([^natCu]PDC-1, DX3puro tumors) at day 0. Tumor volumes and body weights (to assess possible systemic toxicity) were measured starting on day 0, and once a week thereafter until the end of the study. Tumor volume (V) was determined according to the equation V = (π/6) × L × W × H, where L is the longest axis, W is the axis perpendicular to L, and H is perpendicular to the plane of L and W. End point determination criteria were: any axis >2 cm, active ulceration, or compromised health of the mouse (>20% loss of body weight from the start of the study). All data are represented as the mean ± SD and are plotted beginning at day 0. Survival curves were determined by Kaplan–Meier method.
# [9] = 48 h treatment + 24 h media, mean ± SD
Compound,"Caspase-3/7 activity, fold increase (BxPC-3 (+) cells [2])",Caspase-3/7 activity (in words) (MIA PaCa-2 (−) cells [4]),Fold more cytotoxic toward DX3puroβ6 (+) than DX3puro (−) cells (DX3puroβ6 (+) cells [5]),Caspase-3/7 activity (in words) (DX3puro (−) cells [7]),"Caspase-3/7 activity, times higher (DX3puroβ6 (+) cells [8])","Cytotoxicity (in words), WST-1 (DX3puro (−) cells [1])",Caspase-3/7 activity (in words) (BxPC-3 (+) cells [2]),Caspase-3/7 activity (in words) (DX3puroβ6 (+) cells [8]),also measured
CC[C@H](C)[C@@H]([C@@H](CC(=O)N1CCC[C@H]1[C@H](OC)[C@@H](C)C(=O)N[C@H](C)[C@@H](O)c1ccccc1)OC)N(C)C(=O)[C@@H](NC(=O)[C@H](C(C)C)N(C)C(=O)OCc1ccc(NC(=O)[C@H](CCCNC(N)=O)NC(=O)[C@@H](NC(=O)CCOCCOCCNC(=O)CCN2C(=O)CC(SC[C@H](N)C(=O)NCCOCCOCCOCCOCCOCCOCCOCCOCCOCCOCCOCCOCCOCCOCCOCCOCCOCCOCCOCCOCCOCCOCCOCCOCCOCCOCCOCCOCCC(=O)N[C@@H](CC(N)=O)C(=O)N[C@@H](C)C(=O)N[C@H](C(=O)N3CCC[C@H]3C(=O)N[C@@H](CC(N)=O)C(=O)N[C@@H](CC(C)C)C(=O)N[C@@H](CCCNC(=N)N)C(=O)NCC(=O)N[C@@H](CC(=O)O)C(=O)N[C@@H](CC(C)C)C(=O)N[C@@H](CCC(N)=O)C(=O)N[C@H](C(=O)N[C@@H](CC(C)C)C(=O)N[C@@H](C)C(=O)N[C@@H](CCC(N)=O)C(=O)N[C@@H](CCCNC(=N)N)C(=O)N[C@H](C(=O)N[C@@H](C)C(=O)N[C@@H](CCCNC(=N)N)C(=O)N[C@H](C(=O)NCCOCCOCCOCCOCCOCCOCCOCCOCCOCCOCCOCCOCCOCCOCCOCCOCCOCCOCCOCCOCCOCCOCCOCCOCCOCCOCCOCCOCCC(N)=O)[C@@H](C)O)C(C)C)C(C)C)C(C)C)C2=O)C(C)C)cc1)C(C)C (some centres unmarked) [NH2-PDC-1],> 3 fold,no significant increase,> 31 fold,no observed change,> 5 times,–,–,–,"EC50 (DX3puro (−) cells [1]; [9]): > 5 nM; EC50 (MIA PaCa-2 (−) cells [3]; MIA PaCa-2 (−), 48 h treatment + 24 h media, up to 250 nM (MMAE up to 10 nM), mean ± SD): > 250 nM; EC50 (DX3puroβ6 (+) cells [5]; DX3puroβ6 (+), 48 h treatment + 24 h media, mean ± SD): 0.159 ± 0.014 nM; EC50 (BxPC-3 (+) cells [6]; [9]): 222 ± 114 nM"
"CC[C@H](C)[C@@H]([C@@H](CC(=O)N1CCC[C@H]1[C@H](OC)[C@@H](C)C(=O)N[C@H](C)[C@@H](O)c1ccccc1)OC)N(C)C(=O)[C@@H](NC(=O)[C@H](C(C)C)N(C)C(=O)OCc1ccc(NC(=O)[C@H](CCCNC(N)=O)NC(=O)[C@@H](NC(=O)CCOCCOCCNC(=O)CCN2C(=O)CC(SC[C@H](NC(=O)CN3CCN(CC(=O)O)CCN(CC(=O)O)CCN(CC(=O)O)CC3)C(=O)NCCOCCOCCOCCOCCOCCOCCOCCOCCOCCOCCOCCOCCOCCOCCOCCOCCOCCOCCOCCOCCOCCOCCOCCOCCOCCOCCOCCOCCC(=O)N[C@@H](CC(N)=O)C(=O)N[C@@H](C)C(=O)N[C@H](C(=O)N3CCC[C@H]3C(=O)N[C@@H](CC(N)=O)C(=O)N[C@@H](CC(C)C)C(=O)N[C@@H](CCCNC(=N)N)C(=O)NCC(=O)N[C@@H](CC(=O)O)C(=O)N[C@@H](CC(C)C)C(=O)N[C@@H](CCC(N)=O)C(=O)N[C@H](C(=O)N[C@@H](CC(C)C)C(=O)N[C@@H](C)C(=O)N[C@@H](CCC(N)=O)C(=O)N[C@@H](CCCNC(=N)N)C(=O)N[C@H](C(=O)N[C@@H](C)C(=O)N[C@@H](CCCNC(=N)N)C(=O)N[C@H](C(=O)NCCOCCOCCOCCOCCOCCOCCOCCOCCOCCOCCOCCOCCOCCOCCOCCOCCOCCOCCOCCOCCOCCOCCOCCOCCOCCOCCOCCOCCC(N)=O)[C@@H](C)O)C(C)C)C(C)C)C(C)C)C2=O)C(C)C)cc1)C(C)C (some centres unmarked) [[^natCu]PDC-1, metal not drawn]",> 3 fold,slight increase,> 86 fold,no observed change,> 5 times,no observable cytotoxic effects,–,–,"Concentration required for noticeable cytotoxic effects (MIA PaCa-2 (−) cells [3]; MIA PaCa-2, WST-1): ≥ 250 nM; Median survival (DX3puro (−) tumors; 6 mg/kg i.v. on days 0, 3, 6, 9, n = 10): 49 days; Time at which all mice had reached an end point (DX3puro (−) tumors; from start of treatment): 95 days; Median survival (DX3puroβ6 (+) tumors; DX3puroβ6 (+) tumors, 6 mg/kg i.v. on days 0, 3, 6, 9, n = 10): 77 days; Mean tumor volume, times smaller than all other treatment groups (saline, [natCu]2, MMAE) (DX3puroβ6 (+) tumors; day 37): > 4 times; Mean tumor volume, times smaller than equally treated DX3puro (−) tumors (DX3puroβ6 (+) tumors; day 37, P = 0.0099): > 2.75 times; Body weight / systemic toxicity (in words) (DX3puroβ6 (+) tumors; four doses of 6 mg/kg i.v., body weight weekly, all groups compared, 6 mg/kg): No significant differences; also recorded: did not cause adverse systemic side-effects; Median survival, fold longer than other treatment groups (DX3puroβ6 (+) tumors; vs saline, [natCu]2, MMAE (37 days)): > 2 fold"
"CN[C@@H]1C[C@H]2O[C@@](C)([C@@H]1OC)n1c3ccccc3c3c4c(c5c6ccccc6n2c5c31)C(=O)NC4 [staurosporine, reference compound]",–,increased caspase-3/7 activity,–,increased caspase-3/7 activity,–,–,increased caspase-3/7 activity,increased caspase-3/7 activity,–
NH2-C-αvβ6-BP [NH2-2],–,no effect on caspase-3/7 activity,–,no effect on caspase-3/7 activity,–,not toxic,no effect on caspase-3/7 activity,no effect on caspase-3/7 activity,"Cytotoxicity (in words), WST-1 (MIA PaCa-2 (−) cells [3]; MIA PaCa-2 (−), up to 250 nM): not toxic; Cytotoxicity (in words), WST-1 (DX3puroβ6 (+) cells [5]; DX3puroβ6 (+), up to 5 nM): not toxic; Cytotoxicity (in words), WST-1 (BxPC-3 (+) cells [6]; up to 250 nM): not toxic"
